# “Also recorded” adds a separate entry of the source.
# Experiments:
# [1] = test system: NO production in LPS-stimulated RAW 264.7 macrophages; assay: NO production in LPS-stimulated macrophages (Griess assay); type: cell-based, mouse; settings: LPS 100 ng/mL, 24 h
# Experimental: The human keratinocytes (HaCaT, CLS 300493, Eppelheim, Germany) cell line was cultured with Dulbecco’s Modified Eagle’s Medium (DMEM) (Sigma-Aldrich, St. Louis, MO, USA), supplemented with 10% (v/v) of heat-inactivated fetal bovine serum (FBS), 1% (v/v) antibiotic solution (from a 10,000 U/mL penicillin and 10,000 μg/mL streptomycin stock) (Gibco, Carlsbad, CA, USA), 3.7 g/L sodium bicarbonate, and 1 mM sodium pyruvate (Sigma-Aldrich, St. Louis, MO, USA). The cell culture of keratinocytes was detached with EDTA solution 1X (Sigma-Aldrich, St. Louis, MO, USA) when the cells reached 70–80% confluence in cell culture flasks. The mouse macrophage cell line (RAW 264.7, ATCC TIB-71, Manassas, VA, USA) was cultured in DMEM supplemented with 10% (v/v) non-inactivated FBS, 1% (v/v) antibiotic solution, 1.5 g/L sodium bicarbonate, and 1 mM sodium pyruvate. Macrophages were mechanically detached with a cell scraper and subcultured in (1:10) proportion of cellular suspension to a final volume of DMEM. The human monocytic cell line THP-1 (ATCC® TIB-202™, American Type Culture Collection, Manassas, VA, USA) was cultivated in RPMI 1640 supplemented with 10% inactivated FBS, 25 mM (D)-glucose, 10 mM HEPES, 1 mM sodium pyruvate, 100 U/mL penicillin, and 100 μg/mL streptomycin, and maintained at a cell density of 0.4 × 10^6 cells/mL. Cells were subcultured every 2 or 3 days and maintained in culture for 2–3 months, according to ATCC® instructions. Nitric oxide (NO) production was measured by quantifying the accumulation of nitrites in culture supernatants using the Griess assay. […] After a 30 min incubation period at room temperature, protected from light, the absorbance was read at 550 nm using a microplate spectrophotometer. The concentration of nitrites present in the supernatants was determined by interpolation of the absorbance of each sample in a sodium nitrite standard curve. The results of four independent experiments, in duplicate, were expressed as the percentage of NO production by cells versus the concentration of the chemicals compared with LPS (100%).
# [2] = set-up: method as in earlier work; settings: ref (2) of the supplement; read-out: DPPH scavenging EC50 (literature value); cited from earlier work
# [3] = Cellular metabolic activity, resazurin reduction assay, HaCaT; type: cell-based, human; settings: human, HaCaT keratinocytes; HaCaT, resazurin, 24 h, concentrations greater than or equal to 500 µM; read-out: cell viability
# Experimental: (§1) The human keratinocytes (HaCaT, CLS 300493, Eppelheim, Germany) cell line was cultured with Dulbecco’s Modified Eagle’s Medium (DMEM) (Sigma-Aldrich, St. Louis, MO, USA), supplemented with 10% (v/v) of heat-inactivated fetal bovine serum (FBS), 1% (v/v) antibiotic solution (from a 10,000 U/mL penicillin and 10,000 μg/mL streptomycin stock) (Gibco, Carlsbad, CA, USA), 3.7 g/L sodium bicarbonate, and 1 mM sodium pyruvate (Sigma-Aldrich, St. Louis, MO, USA). The cell culture of keratinocytes was detached with EDTA solution 1X (Sigma-Aldrich, St. Louis, MO, USA) when the cells reached 70–80% confluence in cell culture flasks. The mouse macrophage cell line (RAW 264.7, ATCC TIB-71, Manassas, VA, USA) was cultured in DMEM supplemented with 10% (v/v) non-inactivated FBS, 1% (v/v) antibiotic solution, 1.5 g/L sodium bicarbonate, and 1 mM sodium pyruvate. Macrophages were mechanically detached with a cell scraper and subcultured in (1:10) proportion of cellular suspension to a final volume of DMEM. […] The metabolic activity of human epidermal keratinocytes (HaCaT), murine macrophages (RAW264.7), and human monocytes (THP-1) was assessed using a resazurin reduction assay. […] The absorbance was read at 570 and 620 nm using a SpectraMax Plus 384 absorbance microplate spectrophotometer (Molecular Devices, San Jose, CA, USA). […]
# [4] = test system: human fibroblasts; settings: ref [15],[16],[17]; cited from earlier work
# [5] = test system: B16 cells; settings: 4 mM, compared to 3-O-ethyl ascorbic acid, ref [15],[16],[17]; cited from earlier work
# [6] = test system: THP-1 cells; assay: Cellular metabolic activity, resazurin reduction assay, THP-1; type: cell-based, human; settings: THP-1 monocytes, concentrations examined (abstract: up to 500 µM)
# Experimental: as §1
# [7] = test system: HaCaT cells; assay: Cellular metabolic activity, resazurin reduction assay, HaCaT; type: cell-based, human; settings: HaCaT keratinocytes, concentrations examined (abstract: up to 500 µM)
# Experimental: as §1
# [8] = test system: RAW264.7 cells; assay: Cellular metabolic activity, resazurin reduction assay, RAW264.7; type: cell-based, mouse; settings: RAW264.7 macrophages, concentrations examined (abstract: up to 500 µM)
# Experimental: as §1
SMILES,effect on NO production [1],reduction of NO production ([1]; relative to LPS = 100%) [%],EC50 [2] [µM],viability at 24 h [3] [%],collagen production [4] [µg/well],lightening effect [5],effect on cell viability / metabolic activity [6],effect on cell viability / metabolic activity [7],effect on cell viability / metabolic activity [8]
"O=C1O[C@H]([C@@H](O)CO)C(O)=C1O [AA, Ascorbic acid]",inhibited NO production,30,16.3 ± 0.569,,,,,,
"O=C1O[C@H]([C@@H](O)CO)C(O)=C1O[C@H]1O[C@H](CO)[C@@H](O)[C@H](O)[C@H]1O [AAG, 2-O-α-D-glucopyranosyl-L-ascorbic acid]",inhibited NO production,,,> 70,> 12,better lightening effect,,,
"O=C1OC(C(COS(=O)(=O)O)OS(=O)(=O)O)C(OS(=O)(=O)O)=C1OC1OC(COS(=O)(=O)O)C(OS(=O)(=O)O)C(OS(=O)(=O)O)C1OS(=O)(=O)O [AAGS, 2-O-α-D-glucopyranosyl-L-ascorbic acid persulfate]",,,,,,,did not adversely impact cell viability; also recorded: did not affect the metabolic activity,did not adversely impact cell viability; also recorded: did not affect the metabolic activity,did not adversely impact cell viability; also recorded: did not affect the metabolic activity

# From paper PMC11477482 (Molecules, 2024)
